Assays:
[1] = tested on: HT-29; assay: Antiproliferative activity against human HT-29 cells at 30 uM after 72 hrs by MTT assay; assay type: functional; conditions: HT-29, 72 h
[2] = Antiproliferative activity against human PANC1 cells at 30 uM after 72 hrs by MTT assay; assay type: functional; conditions: PANC-1, 72 h
[3] = tested on: MCF7; assay: Antiproliferative activity against human MCF7 cells at 30 uM after 72 hrs by MTT assay; assay type: functional; conditions: MCF7, 72 h
[4] = tested on: A549; assay: Antiproliferative activity against human A549 cells at 30 uM after 72 hrs by MTT assay; assay type: functional; conditions: A549, 72 h
[5] = Antiproliferative activity against human DU145 cells at 30 uM after 72 hrs by MTT assay; assay type: functional; conditions: DU-145, 72 h
[6] = Antiproliferative activity against human HL60 cells at 30 uM after 72 hrs by MTT assay; assay type: functional; conditions: HL-60, 72 h
[7] = tested on: HT-29; assay: Antiproliferative activity against human HT-29 cells after 72 hrs by MTT assay; assay type: functional, cell-based; conditions: HT-29, 72 h
[8] = Antiproliferative activity against human PANC1 cells after 72 hrs by MTT assay; assay type: functional, cell-based; conditions: PANC-1, 72 h
[9] = tested on: MCF7; assay: Antiproliferative activity against human MCF7 cells after 72 hrs by MTT assay; assay type: functional, cell-based; conditions: MCF7, 72 h
[10] = Antiproliferative activity against human HL60 cells after 72 hrs by MTT assay; assay type: functional, cell-based; conditions: HL-60, 72 h
[11] = tested on: A549; assay: Antiproliferative activity against human A549 cells after 72 hrs by MTT assay; assay type: functional, cell-based; conditions: A549, 72 h
[12] = Antiproliferative activity against human DU145 cells after 72 hrs by MTT assay; assay type: functional, cell-based; conditions: DU-145, 72 h

IC50 [7] [nM] | IC50 [9] [µM] | IC50 [11] [µM] | Compound | inhibition at 30 µM [1] [%] | inhibition at 30 µM [2] [%] | inhibition at 30 µM [3] [%] | inhibition at 30 µM [4] [%] | inhibition at 30 µM [5] [%] | inhibition at 30 µM [6] [%] | IC50 [8] [nM] | IC50 [10] [nM] | IC50 [12] [nM]
– | – | – | Nc1ccc(OC(=O)CCCO[N+](=O)[O-])c(C(=O)Oc2ccc(-c3cc(=S)ss3)cc2)c1 | -13.3 | -10.5 | -5.55 | -18.4 | -7.67 | 8.73 | – | – | –
– | – | – | O=C(Nc1cccc(C(F)(F)F)c1)Nc1ccc(OC(=O)CCCO[N+](=O)[O-])c(C(=O)Oc2ccc(-c3cc(=S)ss3)cc2)c1 | 13.2 | -5.71 | -6.78 | -22.1 | -14.2 | 14.1 | – | – | –
– | – | – | Cc1cccc(NC(=O)Nc2ccc(OC(=O)CCCO[N+](=O)[O-])c(C(=O)Oc3ccc(-c4cc(=S)ss4)cc3)c2)c1 | 9.56 | -14.2 | 13.9 | -19.8 | -19.3 | 7.34 | – | – | –
536 | – | – | CC(C)(C)OC(=O)Nc1ccc(OCCOCCOc2no[n+]([O-])c2S(=O)(=O)c2ccccc2)c(C(=O)Oc2ccc(-c3cc(=S)ss3)cc2)c1 | 103 | 97.9 | 63.1 | 18.7 | 54.7 | 84.5 | 2800 | – | –
5440 | 11.9 | – | Nc1ccc(OCCOCCOc2no[n+]([O-])c2S(=O)(=O)c2ccccc2)c(C(=O)Oc2ccc(-c3cc(=S)ss3)cc2)c1 | 101 | 97.1 | 90 | 62.8 | 63.2 | 84.4 | 8000 | – | –
1920 | 3.54 | 2.63 | COc1cc2/c(=N/c3ccc(Br)cc3F)nc[nH]c2cc1OCC1CCN(C)CC1 [VANDETANIB] | – | – | – | – | – | – | 4110 | 1490 | 1970
– | – | – | COc1ccc(NC(=O)Nc2ccc(OC(=O)CCCO[N+](=O)[O-])c(C(=O)Oc3ccc(-c4cc(=S)ss4)cc3)c2)cc1 | 12.1 | 2.19 | 16 | 3.19 | -6.39 | 8.3 | – | – | –
559 | 3.05 | 3.27 | Nc1ccc(OCCCOc2no[n+]([O-])c2S(=O)(=O)c2ccccc2)c(C(=O)Oc2ccc(-c3cc(=S)ss3)cc2)c1 | 103 | 97.5 | 92.1 | 100 | 94.8 | 87.3 | 971 | – | 2240
– | – | – | O=C(Nc1ccc(OC(=O)CCCO[N+](=O)[O-])c(C(=O)Oc2ccc(-c3cc(=S)ss3)cc2)c1)Nc1ccc(F)cc1F | -6.41 | -14.8 | -6.87 | -28 | -7.47 | 0.43 | – | – | –
769 | 2.68 | 4.17 | Nc1ccc(OCCOc2no[n+]([O-])c2S(=O)(=O)c2ccccc2)c(C(=O)Oc2ccc(-c3cc(=S)ss3)cc2)c1 | 102 | 96.6 | 90.1 | 100 | 93.8 | 92.3 | 1860 | 1880 | 1270
– | – | – | O=C(Nc1cccc(Cl)c1)Nc1ccc(OC(=O)CCCO[N+](=O)[O-])c(C(=O)Oc2ccc(-c3cc(=S)ss3)cc2)c1 | 21.5 | -17.3 | 6.1 | -23.3 | 5.49 | 10.9 | – | – | –
256 | – | – | CC(C)(C)OC(=O)Nc1ccc(OCCOc2no[n+]([O-])c2S(=O)(=O)c2ccccc2)c(C(=O)Oc2ccc(-c3cc(=S)ss3)cc2)c1 | 103 | 97.1 | 83.1 | 88.5 | 61.6 | 84.6 | 1450 | – | –
– | – | – | O=C(Nc1ccc(F)cc1)Nc1ccc(OC(=O)CCCO[N+](=O)[O-])c(C(=O)Oc2ccc(-c3cc(=S)ss3)cc2)c1 | 6.92 | -12.9 | 19.1 | -27.2 | 15.3 | 8.68 | – | – | –
926 | – | – | CC(C)(C)OC(=O)Nc1ccc(OCCCOc2no[n+]([O-])c2S(=O)(=O)c2ccccc2)c(C(=O)Oc2ccc(-c3cc(=S)ss3)cc2)c1 | 103 | 97.4 | 25.2 | -23.8 | 67.9 | 84 | 3020 | – | –
